Test results: patent US20220240499A1, “COMPOSITION AND METHOD FOR CRYOPRESERVATION OF CELLS” (Regents of the University of Minnesota, priority 2019, published 2022)
Where a SMILES comes first, the peptide text is derived from it. The star is where a group is joined. Cbz = O=C(OCc1ccccc1)*; CH2F = FC*

Assays:
[1] = system: iPS cell aggregates; assay: Cell proliferation of post-thaw culture from 24 to 48 h; assay type: cell-based, human; details: 1: no net change in total live cell count in culture
Experimental: (§1) Different forms of cellular damage were identified. Low-temperature spectroscopy was conducted as described earlier to characterize the formation of intracellular ice at −50° C. Both pre-freeze and post-thaw, cells were stained for ROS and free radicals using H2DCFDA (ROS Detection Assay Kit, BioVision) at 37° C. for 45 min to characterize oxidative stress by immunofluorescence and microplate assay. Thawed cells were also stained for caspase enzyme activity using FAM-FLICA (from ImmunoChemistry Technologies, LLC in Bloomington, Minn.) to detect apoptosis. Size of cell aggregates post-thaw was observed visually. Post-thaw cell recovery, reattachment and proliferation were measured as described earlier. Cells cryopreserved using 10% DMSO in PBS++ was used as a control. Brightfield and fluorescent images were acquired using a Carl Zeiss Axioskop 50 with a 10× air objective (NA 0.30, Plan-Neofluar, Carl Zeiss) or a 20× air objective (NA 0.50, Plan-Neofluar, Carl Zeiss) and a Spot Insight Firewire 2 Camera. Microplate assay was quantified using a Synergy HT microplate reader (BioTek).
Different types of additives were tested. P188 5% w/v was added to both the basal solution and the 2× cryopreservation solution to stabilize cell membrane. 2× NEAA was added pre-freeze to the 2× cryopreservation solution to conserve cellular energy. The following molecules were used to target general or specific apoptosis pathways and added at the given working concentration either pre-freeze or post-thaw: 10 μM rho kinase inhibitor (or ROCK inhibitor, Y-27632, […] Technologies), 20 μM pan caspase inhibitor (Z-VAD-FMK, from ApexBio Technology LLC in Houston, Tex.), 1 μg/ml Fas ligand inhibitor (Recombinant Human Fas/TNFRSF6-Fc Chimera from BioLegend in San Diego, Calif.), 100 ng/ml each of TNF-related apoptosis-inducing ligand (TRAIL) inhibitors targeting TRAIL receptor 1 (Recombinant Human TNFRSF10A-Fc Chimera, BioLegend), TRAIL receptor 2 (Recombinant Human TNFRSF10B-Fc Chimera, BioLegend), and TRAIL receptor 4 (Recombinant Human TNFRSF10D-Fc Chimera, BioLegend) respectively.

[2] = system: iPS cell aggregates; assay: Post-thaw cell reattachment (calcein AM, 24 h post-thaw) after controlled-rate freezing, development of buffer and additives; assay type: cell-based, human; details: 100%: same as DMSO control; for Post-thaw reattachment rate of cell aggregates buffered in HBSS: HBSS buffer; for Post-thaw reattachment rate of cell aggregates buffered in PBS++: PBS++ buffer
Experimental: Cells were dissociated using ReLeSR™ and harvested as aggregates without centrifugation in the basal solution at cell concentration of ˜ 3×10^6/ml. Suspension of cell aggregates was loaded into cryovials (Nunc CryoTube, ThermoFisher Scientific) for 0.5 ml/vial. 2× cryopreservation solution was introduced to the cells dropwise for 0.5 ml/vial. Cells were then incubated at room temperature for exactly 30 min before freezing.
Cryovials of cells were frozen using a controlled-rate freezer (Kryo 10 Series III from Planer PLC in Middlesex, UK) following the steps listed below using a cooling rate, B, of 1° C./min and a seeding (or ice nucleation) temperature, TNUC, of −4° C.: • 1. Starting temperature 20° C. • 2. −10° C./min to 0° C. • 3. Hold at 0° C. for 10 min to equilibrate temperature inside and outside cryovials • 4. −1° C./min to −4° C. • 5. Hold at −4° C. for 15 min • 6. Induce ice nucleation when cryovial internal temperature reaches −4° C. towards the end of step 5 • 7. −1° C./min to −60° C. • 8. −10° C./min to −100° C.
Frozen cryovials were thawed in a 37° C. water bath. The cryovial was submerged below the lid and agitated for 2.5 min.
E8 media, either with or without apoptosis inhibitors, was added to the thawed suspension of cell aggregates using a flow rate of ˜ 1 ml/min. Dilution factor of 2 was used, meaning each cryovial of cells was used to produce 1 well of a 6-well plate of post-thaw cell culture. Diluted cells were seeded onto a freshly coated culture vessel and placed in 5% CO2 at 37° C. incubator undisturbed for 24 h.
Ability of cryopreserved cells to re-establish culture after thawing was assessed based on a metric of post-thaw cell reattachment. Thawed cells were plated at a specified split ratio. After 24 h, post-thaw culture was washed and stained for live cells with esterase activity using cell permeant dye calcein AM (ThermoFisher Scientific). Live cells in each sample were quantified using a Synergy HT microplate reader (BioTek) in scan mode based on mean fluorescence intensity. Fluorescence measurement was normalized to controls, which were either fresh cells passaged with the same cell density or cells cryopreserved with the same pre-freeze cell concentration using a DMSO-based control formulation, to determine the value of post-thaw cell reattachment for each sample in arbitrary unit.
Controlled-rate freezing protocol remained constant with a cooling rate of 1° C./min and an ice nucleation temperature of −4° C.
as §1
Different types of additives were tested. P188 5% w/v was added to both the basal solution and the 2× cryopreservation solution to stabilize cell membrane. 2× NEAA was added pre-freeze to the 2× cryopreservation solution to conserve cellular energy. […]

[3] = system: iPS cell aggregates; assay: Screening of osmolytes for wash-free cryopreservation (cytotoxicity limits by cell reattachment); details: 300 mM, 30 min, in HBSS at room temperature; observed 24 hours later
Experimental: Different types of sugars (disaccharides) and sugar alcohols (all BioUltra or PharmaGrade, Sigma-Aldrich) were individually tested for cytotoxicity limits based on its effect on cell reattachment. In consideration for pre-freeze cell processing, each molecule of a given concentration among 300 mM, 150 mM, and 75 mM was used to incubate cell aggregates suspended in HBSS at room temperature for 30 minutes or 1 hour. Then, in consideration of wash-free thawing at minimum dilution ratio of 2, each sample of cell aggregates were mixed at 1:1 volume ratio with E8 media and plated on vitronectin-coated culture vessel. 24 hours later, cell reattachment was observed qualitatively under a Nikon TMS inverted phase contrast microscope. Disaccharides included sucrose, trehalose, maltose, and lactose.

Compound	Cell proliferation of culture cryopreserved in HBSS from 24 to 48 h post-thaw ([1]; inhibitors added post-thaw)	Post-thaw reattachment rate of cell aggregates buffered in HBSS ([2]; inhibitor added post-thaw) [%]	Post-thaw reattachment rate of cell aggregates buffered in PBS++ ([2]; inhibitor added post-thaw) [%]	Post-thaw reattachment rate of cell aggregates buffered in PBS++ ([2]; inhibitor added pre-freeze) [%]	Cell proliferation of culture cryopreserved in HBSS from 24 to 48 h post-thaw ([1]; inhibitors added pre-freeze)	Post-thaw reattachment rate of cell aggregates buffered in HBSS ([2]; inhibitor added pre-freeze) [%]	Conditions and observation: cell reattachment after incubation [3]
COC(=O)C[C@H](NC(=O)[C@H](C)NC(=O)[C@@H](NC(=O)OCc1ccccc1)C(C)C)C(=O)CF [Pan caspase, Z-VAD-FMK] (Cbz-Val-Ala-Asp(OMe)-CH2F)	3.312	100	30	15			
C[C@@H](N)[C@H]1CC[C@H](C(=O)Nc2ccncc2)CC1 [Rho kinase, Y-27632]			11	109	0.967	104	
Fas ligand	1.749	106	62	45	1.713	76	
ethylene glycol							many colonies, normal morphology
